Twelve compounds from ChEMBL document CHEMBL1135982, “New strategy for antedrug application: development of metalloproteinase inhibitors as antipsoriatic drugs” (J Med Chem, 2002) can be followed below.

The target of test [1] is Matrix metalloproteinase-9 (Homo sapiens, UniProt P14780). The test is described as follows: Inhibition of Matrix metalloprotease-9 (MMP-9).
A further test concerns the target Stromelysin-1 (Homo sapiens, UniProt P08254). The test is described as follows: Inhibition of Matrix metalloprotease-3 (MMP-3).
Test [2] addresses Disintegrin and metalloproteinase domain-containing protein 17 (Homo sapiens, UniProt P78536). The test is described as follows: Inhibition of heparin-binding epidermal growth factor (HB-EGF) shedding. In kind it is functional.
Another test concerns the target T1, Amphiregulin (Homo sapiens, UniProt P15514).
T1 sequence (P15514 whole entry): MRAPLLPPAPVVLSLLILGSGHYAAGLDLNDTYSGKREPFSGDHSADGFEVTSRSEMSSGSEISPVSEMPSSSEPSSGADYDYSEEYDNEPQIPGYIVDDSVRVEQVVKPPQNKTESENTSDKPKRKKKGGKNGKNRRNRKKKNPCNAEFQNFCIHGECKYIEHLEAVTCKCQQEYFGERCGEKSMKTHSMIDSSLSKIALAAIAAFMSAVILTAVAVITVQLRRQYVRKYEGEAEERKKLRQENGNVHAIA
The test is described as follows: In vitro amphiregulin shedding inhibition. It is filed as functional.

Another test has as its target T2, Interstitial collagenase (Homo sapiens, UniProt P03956).
T2 sequence (P03956 whole entry): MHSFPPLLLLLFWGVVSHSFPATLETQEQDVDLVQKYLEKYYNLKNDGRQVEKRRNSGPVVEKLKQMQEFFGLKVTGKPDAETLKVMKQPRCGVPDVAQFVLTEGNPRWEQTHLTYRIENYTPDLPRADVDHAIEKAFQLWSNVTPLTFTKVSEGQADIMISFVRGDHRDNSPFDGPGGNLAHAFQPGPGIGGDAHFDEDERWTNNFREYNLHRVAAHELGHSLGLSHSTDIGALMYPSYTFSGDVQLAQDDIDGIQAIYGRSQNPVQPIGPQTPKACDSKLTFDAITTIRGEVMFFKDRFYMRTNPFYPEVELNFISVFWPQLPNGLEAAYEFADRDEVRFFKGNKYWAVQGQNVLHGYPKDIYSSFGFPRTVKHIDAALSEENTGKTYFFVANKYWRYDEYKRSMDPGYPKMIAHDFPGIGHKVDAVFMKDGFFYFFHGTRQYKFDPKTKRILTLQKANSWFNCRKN
As to the kind of experiment: Inhibition of Matrix metalloprotease-1 (MMP-1).

For test [3], the species on record is Mus musculus. As to the kind of experiment: Activity against TPA-induced epidermal hyperplasia in mice, and percent decrease in TPA-induced hyperplasia was reported. It is filed as functional.
The species named for test [4] is Mus musculus. As to the kind of experiment: Activity against TPA-induced epidermal hyperplasia in mice, and epidermal thickness value was reported. Also on record: unit not given here. In kind it is functional.
For another test, the species on record is Homo sapiens. As to the kind of experiment: Stability in human plasma and percentage of compound remained after 60 minutes was reported. In kind it is functional, cell-free.

pIC50, pKi: −log10 of the molar value. Some results are limits rather than exact numbers.

Matrix metalloproteinase-9, sequence (P14780 whole entry): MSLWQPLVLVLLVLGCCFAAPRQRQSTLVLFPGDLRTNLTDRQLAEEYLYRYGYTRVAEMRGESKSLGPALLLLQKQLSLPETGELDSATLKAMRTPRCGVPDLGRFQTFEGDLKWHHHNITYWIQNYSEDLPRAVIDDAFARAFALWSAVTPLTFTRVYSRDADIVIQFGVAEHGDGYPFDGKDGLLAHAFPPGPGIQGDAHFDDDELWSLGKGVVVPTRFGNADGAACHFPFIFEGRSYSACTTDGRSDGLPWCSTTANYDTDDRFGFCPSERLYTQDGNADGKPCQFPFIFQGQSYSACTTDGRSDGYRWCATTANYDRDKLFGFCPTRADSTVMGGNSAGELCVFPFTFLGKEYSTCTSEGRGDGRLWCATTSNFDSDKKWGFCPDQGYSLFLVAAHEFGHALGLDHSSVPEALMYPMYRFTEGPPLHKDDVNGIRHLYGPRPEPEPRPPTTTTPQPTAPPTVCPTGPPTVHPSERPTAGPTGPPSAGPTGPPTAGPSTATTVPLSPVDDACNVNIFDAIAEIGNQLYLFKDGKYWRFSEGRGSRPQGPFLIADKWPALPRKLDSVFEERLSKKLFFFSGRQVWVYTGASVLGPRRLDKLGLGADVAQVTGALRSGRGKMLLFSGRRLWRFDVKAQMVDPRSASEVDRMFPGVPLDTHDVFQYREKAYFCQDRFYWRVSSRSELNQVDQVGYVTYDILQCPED
Disintegrin and metalloproteinase domain-containing protein 17, sequence (P78536 whole entry, the tested form may be a part): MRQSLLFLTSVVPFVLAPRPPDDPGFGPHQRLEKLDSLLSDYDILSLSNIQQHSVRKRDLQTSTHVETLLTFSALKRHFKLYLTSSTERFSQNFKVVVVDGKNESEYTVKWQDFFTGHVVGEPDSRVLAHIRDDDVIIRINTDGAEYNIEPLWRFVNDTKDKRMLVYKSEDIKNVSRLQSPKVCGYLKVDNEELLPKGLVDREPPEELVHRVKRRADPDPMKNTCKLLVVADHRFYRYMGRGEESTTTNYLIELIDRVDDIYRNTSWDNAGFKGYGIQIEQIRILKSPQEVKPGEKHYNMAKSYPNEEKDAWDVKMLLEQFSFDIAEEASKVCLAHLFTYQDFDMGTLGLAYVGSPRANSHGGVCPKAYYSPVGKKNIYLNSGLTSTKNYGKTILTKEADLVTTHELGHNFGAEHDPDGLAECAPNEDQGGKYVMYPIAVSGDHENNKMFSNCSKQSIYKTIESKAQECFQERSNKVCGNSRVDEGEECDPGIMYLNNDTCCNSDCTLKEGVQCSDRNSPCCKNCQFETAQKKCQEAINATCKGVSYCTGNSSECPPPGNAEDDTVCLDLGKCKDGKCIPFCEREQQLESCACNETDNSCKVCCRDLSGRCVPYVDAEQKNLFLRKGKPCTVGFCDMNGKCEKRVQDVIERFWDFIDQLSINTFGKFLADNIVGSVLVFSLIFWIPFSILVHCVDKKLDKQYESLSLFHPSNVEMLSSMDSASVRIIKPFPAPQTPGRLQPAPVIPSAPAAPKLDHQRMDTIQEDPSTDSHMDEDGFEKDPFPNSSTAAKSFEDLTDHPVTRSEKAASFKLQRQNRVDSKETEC
Stromelysin-1, sequence (P08254 whole entry, the tested form may be a part): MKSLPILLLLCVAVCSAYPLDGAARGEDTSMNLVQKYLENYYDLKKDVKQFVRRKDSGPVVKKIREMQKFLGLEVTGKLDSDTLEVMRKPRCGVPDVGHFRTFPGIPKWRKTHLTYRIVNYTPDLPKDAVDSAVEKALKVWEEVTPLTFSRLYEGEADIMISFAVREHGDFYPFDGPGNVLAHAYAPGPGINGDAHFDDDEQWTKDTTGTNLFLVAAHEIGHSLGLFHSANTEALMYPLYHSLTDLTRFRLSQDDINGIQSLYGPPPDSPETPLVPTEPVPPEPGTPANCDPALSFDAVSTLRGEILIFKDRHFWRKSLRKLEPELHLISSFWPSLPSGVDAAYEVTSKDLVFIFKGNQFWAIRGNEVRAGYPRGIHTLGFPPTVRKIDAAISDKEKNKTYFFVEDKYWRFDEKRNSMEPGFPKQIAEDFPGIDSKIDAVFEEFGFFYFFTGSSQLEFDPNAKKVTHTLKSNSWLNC

In general, pKi refers to the Ki on a negative log10 scale, so that one unit is a factor of ten. What is called pIC50 is the IC50 on a negative log10 scale, so that one unit is a factor of ten. As to `COc1ccc([P@](=O)(OCC(F)F)N2Cc3ccccc3C[C@@H]2C(=O)NO)cc1`, the negative-log Ki (pKi) was 8.30 in test [1], 8.18 at Stromelysin-1 and 8.22 at Interstitial collagenase. Further, the pIC50 in test [2] was 6.29; at Amphiregulin it was 5.83.
Turning to `CCCCCCCCCCCCCC(=O)O[C@@H]1[C@@H](C)[C@]2(O)C3C=C(C)C(=O)[C@@]3(O)CC(CO)=C[C@H]2[C@@H]2C(C)(C)[C@]12OC(C)=O.COc1ccc([P@](=O)(OCC(F)(F)F)N2Cc3ccccc3C[C@@H]2C(=O)NO)cc1` (stereo partly specified), the Decrease in the test filed under Mus musculus [3] is recorded as 81.3%. In the test listed under Mus musculus [4], this compound came in with an Epidermal thickness below 30.5.
In turn, `CCCCCCCCCCCCCC(=O)O[C@@H]1[C@@H](C)[C@]2(O)C3C=C(C)C(=O)[C@@]3(O)CC(CO)=C[C@H]2[C@@H]2C(C)(C)[C@]12OC(C)=O.COc1ccc([P@](=O)(OCC(F)F)N2Cc3ccccc3C[C@@H]2C(=O)NO)cc1` (stereo partly specified) gave a Decrease in the test listed under Mus musculus [3] of 57.7%. In the test filed under Mus musculus [4], this compound returned an Epidermal thickness below 39.7.
`COc1ccc([P@](=O)(OCCC(F)(F)F)N2Cc3ccccc3C[C@@H]2C(=O)NO)cc1`: the pKi is 8.35 in test [1], 8.48 on Stromelysin-1 and 8.66 at Interstitial collagenase. The Stability in the test filed under Homo sapiens stood at 99%. For the same compound, the negative logarithm of the IC50 (pIC50) was 6.51 in test [2] and 6.01 against Amphiregulin.
Consider `CCCCCCCCCCCCCC(=O)O[C@@H]1[C@@H](C)[C@]2(O)C3C=C(C)C(=O)[C@@]3(O)CC(CO)=C[C@H]2[C@@H]2C(C)(C)[C@]12OC(C)=O.CCO[P@@](=O)(c1ccc(OC)cc1)N1Cc2ccccc2C[C@@H]1C(=O)NO` (stereo partly specified), for which the Decrease in the test listed under Mus musculus [3] was found to be 45.6%. The same compound came in with an Epidermal thickness in the test filed under Mus musculus [4] below 44.4.
For the compound `COc1ccc(P(=O)(OC)N2Cc3ccccc3CC2C(=O)NO)cc1` (stereo unspecified), in test [2], the pIC50 was above 6.00.
The compound `CCCCCCCCCCCCCC(=O)O[C@@H]1[C@@H](C)[C@@]2(O)[C@@H](C=C(CO)C[C@]3(O)C(=O)C(C)=C[C@@H]23)[C@@H]2C(C)(C)[C@]12OC(C)=O` [PHORBOL MYRISTATE ACETATE] showed an Epidermal thickness in the test filed under Mus musculus [4] of 62.2.
For `CCO[P@@](=O)(c1ccc(OC)cc1)N1Cc2ccccc2C[C@@H]1C(=O)NO`, the pKi was 8.30 in test [1], 8.28 at Stromelysin-1 and 8.34 on Interstitial collagenase. Moreover, the Stability in the test listed under Homo sapiens is 100%. Moreover, the results for the pIC50 (in test [2]; on Amphiregulin) were 6.64 and 6.46, respectively.
On to `COc1ccc([P@](=O)(OCCF)N2Cc3ccccc3C[C@@H]2C(=O)NO)cc1`, for which the results for the negative-log Ki (pKi) (in test [1]; on Stromelysin-1; on Interstitial collagenase) were 7.98, 8.04 and 7.98, respectively. In the test listed under Homo sapiens, the Stability was determined as 96%. Besides, the pIC50 is 6.74 in test [2] and 6.33 against Amphiregulin.
Consider `COc1ccc([P@](=O)(OCC(F)(F)F)N2Cc3ccccc3C[C@@H]2C(=O)NO)cc1`, for which the negative logarithm of the Ki (pKi) was 8.43 in test [1], 8.17 on Stromelysin-1 and 8.18 on Interstitial collagenase. The pIC50 was 6.14 in test [2] and 6.02 against Amphiregulin.
`O=C(NO)C1Cc2ccccc2CN1` (stereo unspecified): the negative logarithm of the Ki (pKi) in test [1] was below 6.10; on Stromelysin-1, below 6.19. In test [2], the pIC50 is below 5.00.
In test [1], `CCO[P@](=O)(c1ccc(OC)cc1)N1Cc2ccccc2C[C@@H]1C(=O)NO` gave a pKi below 6.10. Besides, the negative-log IC50 (pIC50) in test [2] was below 5.00.
